The NIST ThermoML archive (doi:10.1021/je050333h)

Assay: cn = amount concentration of the nth substance listed, in mol/dm3
Conditions: 101 kPa, Liquid; for speed of sound: Sing-around technique in a fixed-path interferometer

CCCCC(CC)COC(=O)CC(C(=O)OCC(CC)CCCC)S(=O)(=O)[O-].[Na+] (stereo not given) [sodium bis(2-ethylhexyl) sulfosuccinate] + CC(C)CC(C)(C)C
Conditions | kinematic viscosity [m2/s] | mass density [kg/m3] | speed of sound [m/s]
293.15 K, c1 = 0.0993 | 8.03e-07 | 704.23 | 1103.5
293.15 K, c1 = 0.2006 | 9.05e-07 | 718.92 | 1104
293.15 K, c1 = 0.302 | 1.04e-06 | 736.65 | 1105.7
293.15 K, c1 = 0.4037 | 1.21e-06 | 754.54 | 1107.9
293.15 K, c1 = 0.5242 | 1.52e-06 | 775.5 | 1111.5
293.15 K, c1 = 0.6067 | 1.83e-06 | 794.1 | 1115.2
293.15 K, c1 = 0.7046 | 2.28e-06 | 812.69 | 1120.4
293.15 K, c1 = 0.8053 | 2.96e-06 | 829.38 | 1126.2
293.15 K, c1 = 0.9065 | 4.07e-06 | 847.23 | 1133.6
293.15 K, c1 = 1.012 | 5.97e-06 | 865.07 | 1142.4
298.15 K, c1 = 0.0987 | 7.58e-07 | 700.09 | 1082.4
298.15 K, c1 = 0.1994 | 8.56e-07 | 714.76 | 1083.1
298.15 K, c1 = 0.3003 | 9.87e-07 | 732.48 | 1085.1
298.15 K, c1 = 0.4017 | 1.14e-06 | 750.77 | 1087.3
298.15 K, c1 = 0.5213 | 1.42e-06 | 771.2 | 1091.2
298.15 K, c1 = 0.6034 | 1.67e-06 | 789.8 | 1095
298.15 K, c1 = 0.701 | 2.1e-06 | 808.51 | 1100.4
298.15 K, c1 = 0.8013 | 2.76e-06 | 825.19 | 1106.5
298.15 K, c1 = 0.902 | 3.73e-06 | 843 | 1113.8
298.15 K, c1 = 1.007 | 5.27e-06 | 860.81 | 1123
303.15 K, c1 = 0.0981 | 7.23e-07 | 695.93 | 1061.6
303.15 K, c1 = 0.1983 | 8.13e-07 | 710.7 | 1062.4
303.15 K, c1 = 0.2986 | 9.27e-07 | – | 1064.5
303.15 K, c1 = 0.3988 | – | – | 1066.9
303.15 K, c1 = 0.5185 | – | – | 1071.1
303.15 K, c1 = 0.6002 | – | – | 1075
303.15 K, c1 = 0.6974 | – | – | 1080.5
303.15 K, c1 = 0.7972 | – | – | 1086.5
303.15 K, c1 = 0.8975 | – | – | 1094.1
303.15 K, c1 = 1.002 | – | – | 1103.7
